# Assay results as given in patent EP0697407B1, “Pyrimidinedione derivatives and antiarrhythmic compositions containing same” (MITSUI TOATSU CHEMICALS, Inc., priority 1994, dated 1996).
# How the values were obtained:
# right Purkinje fiber = assay: Effect on myocardial action potential duration (APD75) in isolated, perfused Purkinje fiber; type: cell-based, mongrel adult dog; settings: Canis lupus familiaris, 20 min, 20 minutes' incubation, field stimulus of 1 Hz, 37°C, read-out: T (%), percent prolongation of myocardial action potential duration (APD75); for activation at 1 µM: Dose 1 x 10^-6 M; for activation at 10 µM: Dose 10 x 10^-6 M; for activation at 100 µM: Dose 100 x 10^-6 M
# Procedure: After a mongrel adult dog was anesthetized by the intravenous administration of 30 mg/kg of pentobarbital, the heart was excised therefrom. Then, the right Purkinje fiber was isolated in a nutrient fluid (i.e., Tyrode's solution). The isolated right Purkinje fiber was fixed in a constant-temperature bath (20 ml) at 37°C and perfused with Tyrode's solution. In this state, the myocardial action potential duration (APD75) was measured before and after the administration of each test compound. Then, the percent prolongation of myocardial action potential duration (T) after the administration of each test compound was calculated according to the following equation. T(%) =(B - A)/(A)x 100 [formula] where A: APD75 before administration B: APD75 after administration
# APD75 was measured as follows: A field stimulus of 1 Hz was given to the right Purkinje fiber, and any change in action potential was detected by a glass microelectrode (10-20 MΩ) penetrated into a Purkinje fiber and monitored on an oscilloscope via an amplifier. The waveform on the oscilloscope was analyzed by means of a computer, and the duration beween the point of action potential generation adn the point of 75% repolarization was defined as APD75. The test compounds shown in Table 2 were separately added to the perfusing nutrient fluid, and after 20 minutes' incubation was recorded. This test was carried out according to the method of Sato et al. [S. Sato, K. Hashimoto; Arzneimittel Forschung, 34(1), 3a, 376-380(1984)].
# [1] = Toxicity test (mortality rate 24 hours after administration); settings: mouse, in vivo, ip; 100 mg/kg (i.p.); twenty-four hours after administration; groups of three mice
# Procedure: The test compounds were separately administered to mice (ddy strain, male). The administration of each compound was carried out intraperitoneally (i.p.) in a dose of 100 mg/kg. Twenty-four hours after the administration, the mortality rate of the mice (in groups of three) was examined.
# ventricular muscle = assay: Effect on ventricular muscle refractory period (ERP) under ventricular pacing in anesthetized dog; type: in vivo, mongrel adult dog; settings: ventricular pacing at 400 msec
# Procedure: According to the method described below, the refractory period was measured before and after the intravenous administration of each test compound, and the percent prolongation of refractory period (ERP) was calculated according to the following equation. ERP prolongation (%) =(W - Y)/(Y)x 100 [formula] where W: Refractory period after administration Y: Refractory period before administration
# After a mongrel adult dog was anesthetized by the intravenous (i.v.) administration of 30 mg/kg of pentobarbital, the chest was opened on the right side. Then, a set of silver-silver chloride electrodes spaced by 3 mm was sewn on the right ventricle, and […] electrical stimuli (a duration of 4 msec, and a current intensity equal to twice the threshold) were given at an interval of 400 msec. Thereafter, a small amount of alcohol was injected into a sinus artery in order to destroy the pacemaker activity, and the ventricular refractory period (ERP) was measured under ventricular pacing. Specifically, one train comprised a series of stimuli having an interval of 400 msec, and the interval between trains was usually 400 msec. During measurement of the refractory period, this interval was shortened by decrements of 10 msec, and the interval between trains at which the response to the first stimulus of the train disappeared was regarded as the refractory period. These electrical stimuli were given by programmed stimulation using a heart stimulation apparatus (Diamedical Co., Ltd.; DHM-226-3).
# [2] = Stability test in acid aqueous solution (Solution 1 of the Japanese Pharmacopoeia, pH 1.2), remaining compound by HPLC; type: physicochemical; settings: Solution 1 (pH 1.2)
# Procedure: In order to confirm the stability of the compounds of the present invention in an acid aqueous solution, stability was tested on the fumarate of 6-[3-[N-[2-(4-methanesulfonylaminophenyl)ethyl]-N-propylamino]propyl]-1,3-dimethyl-2,4(1H,3H)pyrimidinedione (the compound obtained in Example 118; hereinafter referred to as compound A) which is a compound in accordance with the present invention, and 1,3-dimethyl-6-{2-[N-ethyl-3-phenylpropylamino]ethylamino}2,4(1H,3H)-pyrimidinedione (hereinafter referred to as compound B) which is a pyrimidinedione derivative having a substituted amino group at the 6-position of the pyrimidinedione ring as described in European Publication No. 454,498 A2 and was used for purposes of comparison.
# Solution 1 (pH 1.2) described in the Japaense Pharmacopoeia was prepared by adding 7.0 ml of hydrochloric acid and water to 2.0 g of sodium chloride so as to give the final volume of 1,000 ml.
# Compounds A and B were dissolved in Solution 1 at a concentration of 2 mg/ml and the resulting solutions were stirred at 37°C. Thus, changes with time in the percentages of the remaining compounds A and B were examined by HPLC.
Compound,activation at 1 µM (right Purkinje fiber),activation at 10 µM (right Purkinje fiber),activation at 100 µM (right Purkinje fiber),mortality at 24 h [1],also measured
"CCN(CCOc1ccc(NS(C)(=O)=O)cc1)CCc1cc(=O)n(C)c(=O)n1C [Example 123, 6-[2-[N-ethyl-N-[2-(4-methanesulfonylaminophenoxy)ethyl]amino]ethyl]-1,3-dimethyl-2,4(1H,3H)-pyrimidinedione]",12%,41%,64%,–,–
"CCCN(CCCc1cc(=O)n(C)c(=O)n1C)CCc1ccc([N+](=O)[O-])cc1 [Example 76, 1,3-dimethyl-6-[3-[N-[2-(4-nitrophenyl)ethyl]-N-propylamino]propyl]-2,4(1H,3H)pyrimidinedione]",52%,114%,–,–,–
"CCN(CCCc1cc(=O)n(C)c(=O)n1C)CCOc1cccc(F)c1 [Example 38, 6-[3-[N-ethyl-N-[2-(3-fluorophenoxy)ethyl]amino]propyl]-1,3-dimethyl-2,4(1H,3H)pyrimidinedione]",6%,16%,22%,–,–
"CC(=O)c1cc(F)ccc1OCCN(C)CCCc1cc(=O)n(C)c(=O)n1C [Example 60, 6-[3-[N-[2-(2-acetyl-4-fluorophenoxy)ethyl]-N-methylamino]propyl]-1,3-dimethyl-2,4(1H,3H)pyrimidinedione]",13%,34%,47%,0%,–
"CCCN(CCOc1ccc(NS(C)(=O)=O)cc1)CCc1cc(=O)n(C)c(=O)n1C [Example 126, 6-[2-[N-n-propyl-N-[2-(4-methanesulfonylaminophenoxy)ethyl]amino]ethyl]-1,3-dimethyl-2,4(1H,3H)pyrimidinedione]",14%,46%,85%,–,"ERP (%), percent prolongation of refractory period (ventricular muscle; Dose 0.3 mg/kg i.v.): 5.9%; ERP (%), percent prolongation of refractory period (ventricular muscle; Dose 1.0 mg/kg i.v.): 11.8%"
"CC(C)N(CCCc1cc(=O)n(C)c(=O)n1C)CCOc1ccc(NS(C)(=O)=O)cc1 [Example 116, 6-[3-[N-[2-(4-methanesulfonylaminophenoxy)ethyl]-N-isopropylamino]propyl]-1,3-dimethyl-2,4(1H,3H)pyrimidinedione]",9%,43%,77%,0%,"ERP (%), percent prolongation of refractory period (ventricular muscle; Dose 0.1 mg/kg i.v.): 6.3%; ERP (%), percent prolongation of refractory period (ventricular muscle; Dose 0.3 mg/kg i.v.): 12.5%; ERP (%), percent prolongation of refractory period (ventricular muscle; Dose 1.0 mg/kg i.v.): 25.0%"
"CCCN(CCCc1cc(=O)n(C)c(=O)n1C)CCOc1ccc(C(C)=O)cc1 [Example 47, 6-[3-[N-[2-(4-acetylphenoxy)ethyl]-N-propylamino]propyl]-1,3-dimethyl-2,4(1H,3H)pyrimidinedione]",13%,53%,107%,0%,–
"CCCN(CCCc1cc(=O)n(C)c(=O)n1C)CCOc1ccc(NS(C)(=O)=O)cc1 [Example 121, 6-[3-[N-n-propyl-N-[2-(4-methanesulfonylaminophenoxy)ethyl]amino]propyl]-1,3-dimethyl-2,4(1H,3H)pyrimidinedione]",17%,68%,103%,0%,"ERP (%), percent prolongation of refractory period (ventricular muscle; Dose 0.1 mg/kg i.v.): 6.2%; ERP (%), percent prolongation of refractory period (ventricular muscle; Dose 0.3 mg/kg i.v.): 20.0%; ERP (%), percent prolongation of refractory period (ventricular muscle; Dose 1.0 mg/kg i.v.): 33.3%"
"CCN(CCCc1ccc(NS(C)(=O)=O)cc1)CCCc1cc(=O)n(C)c(=O)n1C [Example 138, 6-[3-[N-ethyl-N-[3-(4-methanesulfonylaminophenyl)propyl]amino]propyl]-1,3-dimethyl-2,4(1H,3H)-pyrimidinedione]",6%,22%,49%,–,–
"CCN(CCCc1ccccc1)CCNc1cc(=O)n(C)c(=O)n1C [compound B, 1,3-dimethyl-6-{2-[N-ethyl-3-phenylpropylamino]ethylamino}2,4(1H,3H)-pyrimidinedione]",–,–,–,–,"Percentage of remaining compound ([2]; 0 hr, 2 mg/ml, stirred at 37°C, HPLC): 100%; remaining at 3 h ([2]; jp solution 1, 3 hr, 2 mg/ml, stirred at 37°C, HPLC, read-out: Percentage of remaining compound): 96%; degraded at 6 h ([2]; jp solution 1, 6 hours, 37°C, read-out: decrease after 6 hours' heating): 7%; remaining at 6 h ([2]; jp solution 1, 6 hr, 2 mg/ml, stirred at 37°C, HPLC, read-out: Percentage of remaining compound): 93%"
"CCN(CCCc1cc(=O)n(C)c(=O)n1C)CCc1ccc([N+](=O)[O-])cc1 [Example 84, 6-[3-[N-ethyl-N-[2-(4-nitrophenyl)ethyl]amino]propyl]-1,3-dimethyl-2,4(1H,3H)pyrimidinedione]",23%,72%,96%,–,–
"CCN(CCOc1ccc(F)cc1C(C)=O)CCc1cc(=O)n(C)c(=O)n1C [Example 61, 6-[2-[N-[2-(2-acetyl-4-fluorophenoxy)ethyl]-N-ethylamino]ethyl]-1,3-dimethyl-2,4(1H,3H)pyrimidinedione]",3%,18%,35%,–,–
"CCN(CCCc1cc(=O)n(C)c(=O)n1C)CCOc1ccc(F)cc1 [Example 39, 6-[3-[N-ethyl-N-[2-(4-fluorophenoxy)ethyl]amino]propyl]-1,3-dimethyl-2,4(1H,3H)pyrimidinedione]",14%,53%,49%,–,–
"CCN(CCCOc1ccc(NS(C)(=O)=O)cc1)CCCc1cc(=O)n(C)c(=O)n1C [Example 122, 6-[3-[N-ethyl-N-[3-(4-methanesulfonylaminophenoxy)propyl]amino]propyl]-1,3-dimethyl-2,4(1H,3H)-pyrimidinedione]",10%,14%,33%,–,–
"CC(C)N(CCCc1cc(=O)n(C)c(=O)n1C)CCOc1ccc(-n2ccnc2)cc1 [Example 53, 6-[3-[N-[2-(4-(1H-imidazol-1-yl)phenoxy)ethyl]-N-isopropylamino]propyl]-1,3-dimethyl-2,4(1H,3H)pyrimidinedione]",8%,24%,49%,0%,–
"CCN(CCCc1cc(=O)n(C)c(=O)n1C)CCOc1ccc([N+](=O)[O-])cc1 [Example 28, 6-[3-[N-ethyl-N-[2-(4-nitrophenoxy)ethyl]amino]propyl]-1,3-dimethyl-2,4(1H,3H)pyrimidinedione]",14%,35%,114%,–,–
